Test results published in the supplement of paper PMC11923942.

Legend:
[1] = collision cross section (N2, base ion); higher = larger ion cross section
Protocol: (§1)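 Standards of hydrophobic organic contaminants were analysed by GC-APCI (positive mode, dry or wet source conditions) coupled to cyclic ion mobility-QTOF MS. CCS was measured for the base ion (sometimes a fragment ion) in N2 drift gas (one-pass mode, calibrated with a Waters 22-compound mix).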

[2] = GC retention time (DB-5MS, GC-APCI); higher = later elution
Protocol: as §1, with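 “mix). 5 mL/min).” for “mix).”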

Compound	collision cross section [1]	GC retention time [2]
O=P(OC(CCl)CCl)(OC(CCl)CCl)OC(CCl)CCl [Tris(1,3-dichloropropan-2-yl) phosphate] (APCI source condition: Wet, base ion: [M+H]+)	175.08 Å²	20.4 min
CC(CCl)OP(=O)(OC(C)CCl)OC(C)CCl (stereo not given) [Tris(1-chloro-2-propyl)phosphate] (APCI source condition: Wet, base ion: [M-C3H4Cl]+)	160.76 Å²	15.4 min
CCCCOCCOP(=O)(OCCOCCCC)OCCOCCCC [Tris(2-butoxyethyl) phosphate] (APCI source condition: Wet, base ion: [M+H]+)	198.91 Å²	21.1 min
O=P(OCCCl)(OCCCl)OCCCl [Tris(2-chloroethyl) phosphate] (APCI source condition: Wet, base ion: [M+H]+)	145.65 Å²	15.1 min
CCCCC(CC)COP(=O)(OCC(CC)CCCC)OCC(CC)CCCC (stereo not given) [Tris(2-ethylhexyl) phosphate] (APCI source condition: Wet, base ion: [M+H]+)	221.61 Å²	21.5 min
O=S1OC[C@@H]2[C@H](CO1)[C@@]1(Cl)C(Cl)=C(Cl)[C@]2(Cl)C1(Cl)Cl (stereo partly drawn) [α-Endosulfan] (APCI source condition: Wet, base ion: [M+H]+)	163.16 Å²	18.9 min
ClC1C(Cl)C(Cl)C(Cl)C(Cl)C1Cl (stereo not drawn) [α-Hexachlorocyclohexane] (APCI source condition: Dry, base ion: [M-H2Cl3]+)	137.25 Å²	14.5 min
O=S1OC[C@@H]2[C@H](CO1)[C@]1(Cl)C(Cl)=C(Cl)[C@]2(Cl)C1(Cl)Cl (stereo partly drawn) [β-Endosulfan] (APCI source condition: Wet, base ion: [M+H]+)	162.35 Å²	20 min
Cl[C@H]1[C@H](Cl)[C@@H](Cl)[C@H](Cl)[C@@H](Cl)[C@@H]1Cl [β-Hexachlorocyclohexane] (APCI source condition: Dry, base ion: [M-H2Cl3]+)	138.19 Å²	15.1 min
ClC1C(Cl)C(Cl)C(Cl)C(Cl)C1Cl (stereo not given) [γ-Hexachlorocyclohexane] (APCI source condition: Dry, base ion: [M-H2Cl3]+)	137.38 Å²	15.2 min
